US20240093213A1, “PROCESSES, SYSTEMS AND MEDIA FOR DELIVERING A SUBSTANCE TO A PLANT” (EPIGENETICA LIMITED, priority 2020, published 2024)

Experiments:
[1] = system: Cannabis (Cs) apical cuttings; experiment: Plant growth regulators delivered with ONB in hydroponics, plant growth; assay type: in vivo, Cannabis sativa; details: ONB compared to tap water as delivery system; 14 days hydroponics
Protocol: Hydroponic experiments were set up in glasshouse conditions: day temp. 25° C., night temp. 18° C., 16/8 h day/night and 150 μmol m^−2 s^−1 light intensity. Cannabis (Cs) apical cuttings were treated with Gibberellic acid A3 (GA3; Duchefa, G0907) at 12 mg/L final concentration, similar to Mansouri et al. (2011) or with DL-carnitine hydrochloride (Merck S7021474 Cas-No 461-05-2, 8.41774.0025) at 1 mM/L final concentration, as in Signem Oney-Birol (2019).
All solutions were prepared first in buckets, pH adjusted to 6.0. The liquid feed (Canna coco A+B) was added at the concentration: 4 mL of coco A and 4 mL of coco B per 1 L water; electric conductivity EC=2.0 mS/cm. Next the solutions were run through a fine bubble generator (Anzaikantetsu Co, AZ-FB-20ASVV) with a 0.75 standard litres per minute (SLPM) O2 flow and 800 L/H water flow. Each 25 L bucket was run for 30 min through the nozzle. EC and pH were checked and adjusted to the right level daily. Plants were grown in hydroponics for 14 days. Plant growth was monitored and compared to controls. Plant growth was determined by measurement of major growth parameters including plant height, whole plant fresh weight and number of stems. […]

lettuce (Lactuca sativa) = experiment: Ultrasonic fogging of leaves with air nanobubble water, fresh weight; assay type: in vivo; details: var. Tango, 14 days, fog from air nanobubble water, source solution 1.65 mg/L
Protocol: Seedlings of various lettuce varieties (Lactuca sativa) were exposed to ultrasonic fog generated from water that contained air nanobubbles carrying MVOCs.
Albuterol Sulfate 98.5% (Spectrum Chemical, New Brunswick, NJ, USA) was diluted in tap water at 1.65 mg/L. Five litres was then placed in a container that was pressurized by an air compressor at 1.3 bar. Gas flow from the pressurized container was directed to a nanobubble generator installed in a recirculating flow of water totaling 60 L. After a minimum of 2 hr treatment, 4 L of nanobubble treated water was removed from the recirculating system and placed in a rectangular plastic reservoir with a total capacity of 6 L. A three head ultrasonic fog generator was then placed in the reservoir, and the reservoir was placed in an enclosed plant growth chamber. Seeds of lettuce (Lactuca sativa, var. Tango) were planted in 2.5 cm square cells filled with ProMix growing media. Upon shoot emergence, seedlings were placed in the growth chamber and fog treatments began. A ‘control’ group of plants was placed in a different section of the growth chamber that was not subjected to any treatment. Growing parameters within the chambers were maintained at levels suitable for the crop, including a photoperiod of 16 hr/day. […] After 14 days, all plants were harvested and fresh weight recorded.

## C[N+](C)(C)CC(O)CC(=O)O.[Cl-] (racemic) [DL-carnitine, DL-carnitine hydrochloride]
[1]
  Plant height and biomass: Increased plant height and biomass

## C=C1C[C@]23C[C@@]1(O)CC[C@H]2[C@@]12C=C[C@H](O)[C@@](C)(C(=O)O1)[C@H]2[C@@H]3C(=O)O [gibberellic acid, Gibberellic acid A3]
[1]
  Plant height and biomass: Increased plant height and biomass

## Albuterol Sulfate
Lettuce (Lactuca sativa)
  Average increase in weight compared to control plants: over 30%
